Source: ChEMBL document CHEMBL1133869, “Synthesis and biological activity of L-tyrosine-based PPARgamma agonists with reduced molecular weight” (Bioorg Med Chem Lett, 2001)
pEC50, pKi: −log10 of the molar value.

Key:
[1] = target: T1, Peroxisome proliferator-activated receptor alpha (Homo sapiens, UniProt Q07869); assay: Maximal reporter activity against human Peroxisome proliferator activated receptor alpha Gal4 chimeric in transiently transfected CV-1 cells by functional assay.; format: cell-based
T1 sequence (Q07869 whole entry): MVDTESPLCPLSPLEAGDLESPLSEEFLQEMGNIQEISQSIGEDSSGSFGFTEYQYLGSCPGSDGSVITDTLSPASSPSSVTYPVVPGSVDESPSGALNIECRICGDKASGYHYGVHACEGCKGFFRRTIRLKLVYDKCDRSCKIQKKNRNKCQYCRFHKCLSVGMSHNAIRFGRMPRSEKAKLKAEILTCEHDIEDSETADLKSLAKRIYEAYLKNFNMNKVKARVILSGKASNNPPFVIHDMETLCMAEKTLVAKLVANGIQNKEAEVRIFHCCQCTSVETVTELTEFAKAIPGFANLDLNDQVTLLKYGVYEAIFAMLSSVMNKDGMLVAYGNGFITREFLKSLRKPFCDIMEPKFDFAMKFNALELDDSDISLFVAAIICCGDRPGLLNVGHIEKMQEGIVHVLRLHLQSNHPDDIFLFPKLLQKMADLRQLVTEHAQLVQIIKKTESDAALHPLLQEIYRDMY

[2] = target: T2, Peroxisome proliferator-activated receptor gamma (Homo sapiens, UniProt P37231)
T2 sequence (P37231 whole entry): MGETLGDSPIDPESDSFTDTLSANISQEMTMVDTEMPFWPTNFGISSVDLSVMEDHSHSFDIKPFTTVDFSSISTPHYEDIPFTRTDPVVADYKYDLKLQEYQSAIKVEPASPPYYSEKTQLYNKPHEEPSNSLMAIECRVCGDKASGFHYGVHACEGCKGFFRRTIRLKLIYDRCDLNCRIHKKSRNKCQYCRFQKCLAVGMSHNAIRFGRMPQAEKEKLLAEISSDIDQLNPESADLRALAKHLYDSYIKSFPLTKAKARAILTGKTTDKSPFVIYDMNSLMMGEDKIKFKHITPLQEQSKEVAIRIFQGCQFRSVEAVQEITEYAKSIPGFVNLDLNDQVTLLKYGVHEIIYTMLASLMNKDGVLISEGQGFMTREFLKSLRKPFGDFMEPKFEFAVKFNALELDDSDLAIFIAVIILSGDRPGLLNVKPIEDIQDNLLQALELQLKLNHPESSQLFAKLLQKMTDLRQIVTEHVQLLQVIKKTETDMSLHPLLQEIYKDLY
Description: Binding affinity to human Peroxisome proliferator activated receptor gamma using scintillation proximity assay

[3] = target: T2, Peroxisome proliferator-activated receptor gamma; remark: listed apart in the source
Description: Maximal reporter activity against human Peroxisome proliferator activated receptor gamma Gal4 chimeric in transiently transfected CV-1 cells by functional assay.

[4] = target: T3, Peroxisome proliferator-activated receptor delta (Homo sapiens, UniProt Q03181); assay: Binding affinity to bind to human Peroxisome proliferator activated receptor delta using scintillation proximity assay
T3 sequence (Q03181 whole entry): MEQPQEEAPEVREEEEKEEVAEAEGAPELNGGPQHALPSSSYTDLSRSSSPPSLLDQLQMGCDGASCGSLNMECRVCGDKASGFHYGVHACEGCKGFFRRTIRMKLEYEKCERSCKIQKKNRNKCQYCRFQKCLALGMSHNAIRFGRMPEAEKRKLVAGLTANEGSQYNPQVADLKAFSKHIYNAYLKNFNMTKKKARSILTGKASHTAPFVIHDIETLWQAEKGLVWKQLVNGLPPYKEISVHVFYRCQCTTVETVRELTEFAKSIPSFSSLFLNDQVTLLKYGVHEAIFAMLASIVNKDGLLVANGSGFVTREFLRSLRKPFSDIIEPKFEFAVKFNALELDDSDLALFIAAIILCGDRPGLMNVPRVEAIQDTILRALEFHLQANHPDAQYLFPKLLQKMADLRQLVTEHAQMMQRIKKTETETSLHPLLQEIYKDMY

[5] = target: T3, Peroxisome proliferator-activated receptor delta; assay: Concentration that gave 50% of maximal reporter activity against human Peroxisome proliferator activated receptor delta Gal4 chimeric in transiently transfected CV-1 cells by functional assay.; format: cell-based
[6] = test system: Rattus norvegicus; assay: In vivo efficacy expressed as reduction in fasting plasma glucose at a dose of 10 mg/kg, oral, for 14 days in male rats; format: functional
[7] = test system: Rattus norvegicus; assay: In vivo efficacy expressed as reduction in fasting serum triglycerides at a dose of 10 mg/kg, oral, for 14 days in male rats; format: functional
[8] = test system: Rattus norvegicus; assay: In vivo efficacy expressed as increase in HDL-cholesterol after at a dose of 10 mg/kg, oral, for 14 days in male rats; format: functional

Row | Compound | pKi [2] | pEC50 [3] | further results
1 | Cc1oc(-c2ccccc2)nc1CCOc1ccc(C[C@@H](C(=O)O)N2CCOCC2)cc1 | 6.80 | 7.62 | pEC50 [1]: 5.16
2 | Cc1oc(-c2ccccc2)nc1CCOc1ccc(C[C@H](Nc2ncccn2)C(=O)O)cc1 | 6.55 | 6.23 | 
3 | Cc1oc(-c2ccccc2)nc1CCOc1ccc(C[C@@H](C(=O)O)n2cccc2)cc1 |  |  | pKi [4]: 5.60; pEC50 [5]: 5.42; Reduction [6]: 40%; Reduction [7]: 24%; Increase [8]: 31%
4 | Cc1oc(-c2ccccc2)nc1CCOc1ccc(C[C@@H](C(=O)O)N2CCCC2)cc1 | 6.44 | 6.41 | 
5 | Cc1oc(-c2ccccc2)nc1CCOc1ccc(C[C@@H](C(=O)O)N2CCCCC2)cc1 | 6.32 | 6.86 | 
6 | Cc1oc(-c2ccccc2)nc1CCOc1ccc(C[C@H](Nc2ccccc2C(=O)c2ccccc2)C(=O)O)cc1 [FARGLITAZAR] |  |  | pKi [4]: 5.92

Second part, led by results:

Row | pKi [2] | pEC50 [3] | Compound | further results
7 | 5.68 | 5.30 | CN[C@@H](Cc1ccc(OCCc2nc(-c3ccccc3)oc2C)cc1)C(=O)O | 
8 | 6.21 | 5.59 | Cc1oc(-c2ccccc2)nc1CCOc1ccc(C[C@H](NS(C)(=O)=O)C(=O)O)cc1 | 
9 | 5.59 | 5.46 | CC(=O)N[C@@H](Cc1ccc(OCCc2nc(-c3ccccc3)oc2C)cc1)C(=O)O | 
10 | 6.01 | 6.15 | Cc1oc(-c2ccccc2)nc1CCOc1ccc(C[C@@H](C(=O)O)n2c(C)ccc2C)cc1 | 
11 | 6.07 | 6.39 | Cc1oc(-c2ccccc2)nc1CCOc1ccc(C[C@@H](C(=O)O)N(C)C)cc1 | 
12 | 7.28 | 6.62 | CCCN[C@@H](Cc1ccc(OCCc2nc(-c3ccccc3)oc2C)cc1)C(=O)O | 
